Measured values from article PMC10830684, “Effect of Oregon grape root extracts on P-glycoprotein mediated transport in in vitro cell lines” (Journal of Pharmacy & Pharmaceutical Sciences, 2024).
Structures can show the parent of a compound that is named as a salt. Where two headings read alike, the source gives them in different places. Blank lines part the entries; values can stand above or below the compound they belong to.

What was measured:
human MDR1 mRNA = assay: Real time RT-PCR of MDR1 mRNA in Caco-2 cells; type: cell-based; conditions: 100 µM, positive control
[1] = 14C-mannitol permeability (monolayer integrity) in MDCKII-MDR1 cells; type: in vitro ADME, Canine; conditions: dog, MDCK-MDR1, read-out: apparent permeability (Papp)
Experimental: (§1) The human intestinal epithelial cell line, LS-180 was purchased from American Type Culture Collection (ATCC) (Manassas, VA, USA) and grown in Minimum Essential Medium supplemented with 10% FBS. The Caco-2 cells were obtained from ATCC. MDCKII-MDR1 and MDCKII wild-type cell lines were a generous gift from Dr. Piet Borst (The Netherlands Cancer Research Institute). Both Caro-2 and MDCKII cells were grown in DMEM, 10% FBS, 0.1 mM non-essential amino acids, and 0.01% penicillin/streptomycin [38, 39]. […] For the transport experiments, cells were seeded, 3.0 × 10^5cells/well, onto 6-well Transwell® inserts 4.71 cm^2 (Corning Costar, Cambridge, MA, USA) and maintained until use on Days 21–25 (Caco-2, passages 23–30) and Days 6–7 (MDCKII-MDR1 and MDCKII wild-type). The integrity of the monolayers was assessed by measuring transepithelial electrical resistance (TEER) using a World Precision Instrument, EVOM (Sarasota, FL, USA) and evaluating ^14C-mannitol transport. […] For the real time RT-PCR, cells were seeded at 6 × 10^5 cells/well (Caco-2) and 1 × 10^6 cells/well (LS-180) onto 6-well Transwell® inserts 4.71 cm^2 and grown for 7 (Caco-2) and 6 (LS-180) days.

[2] = 14C-mannitol permeability (monolayer integrity) in MDCKII wild-type cells; type: in vitro ADME, Canine; conditions: dog, MDCK, read-out: apparent permeability (Papp)
Experimental: as §1

[3] = 14C-mannitol permeability (monolayer integrity) in Caco-2 cells; type: in vitro ADME, human; conditions: human, Caco-2 cells, read-out: apparent permeability (Papp)
Experimental: as §1

Caco-2 cells [4] = assay: as above; type: in vitro ADME, human; conditions: various treatment conditions, throughout the entire experiment
Experimental: as §1

Caco-2 cells [5] = assay: LDH leakage cytotoxicity assay in Caco-2 cells; type: cell-based, human; conditions: 300 µM, 4 hours exposure
Text: (§2) We initiated cytotoxicity experiments with the Caco-2, MDCKII-MDR1 and MDCKII-wild type cells on Day 7 (Caco-2) and Day 4 (MDCKII-MDR1 and MDCKII-wild type) after the initial plating of the cells at 2.5 × 10^3 cells/well in 48-well plates (Becton Dickinson, Franklin Lakes, NJ, USA). See details of preparation for the cytotoxicity experiments in Supplementary Material.
(§3) We initiated cytotoxicity experiments with the Caco-2, MDCKII-MDR1 and MDCKII-wild type cells on Day 7 (Caco-2) and Day 4 (MDCKII-MDR1 and MDCKII-wild type) after the initial plating of the cells at 2.5x10^3 cells/well in 48-well plates (Becton Dickinson, Franklin Lakes, NJ, USA). Stock solutions of 10 mM berberine or berbamine were prepared by dissolving the compounds in DMSO (berberine) or distilled water (berbamine).
(§4) The LDH enzymatic activities were assayed using the method of Mitchell et al.(1). […] Enzyme leakage into the medium was expressed as the percentage of total cellular LDH. The MTT (3-(4,5-dimethythiazole-2yl)-2,5-diphenyl tetrazolium bromide) reduction assay was done according to Mosmann (2). This assay was conducted immediately with the same cells used in the LDH study. The results were expressed as the percentage of negative controls.

[6] = Transepithelial transport of berberine and berbamine across Caco-2 cells; type: in vitro ADME, human; conditions: human
Experimental: (§5) Transport of ^3H-CsA and ^3H-digoxin (0.5 µM and 1.0 µCi), MDR1 substrates, were performed using transport buffer consisting of HBSS with 10 mM HEPES and 25 mM D-glucose at a pH of 6.8 for the apical (A) compartment and 7.4 for the basolateral (B) compartment. Experiments were performed at 37°C, 5% CO2, and 95% relative humidity. Cells in the Transwell® inserts were washed 3 times with a transport buffer and allowed to equilibrate for 30 min prior to the addition of test compounds. […] To evaluate the efflux mechanism involved with berberine and berbamine, 100 µM of berberine and berbamine were placed in the donor chamber and 100 µL samples were collected in the receiver chamber at 0, 0.5, 1.0, 1.5, 2.0, 2.5, and 3.0 h and analyzed by HPLC. Each experiment was performed in duplicate and repeated for each condition tested. For experiments performed in “non-sink” conditions, 100 µL aliquots were taken from the donor and receiver chambers at the beginning and from the receiver chamber at 0.5, 1.0, 1.5, 2.0, 2.5, and 3.0 h. An equal volume of 100 µL was replaced in the chamber at each sample time point. “Non-sink” conditions were performed when less than 10% of compound is transported across cells during the transport experiment such that a concentration gradient was always present. For the “sink” condition experiments, the entire receiver volume was replaced at each time interval and a 100 µL aliquot was taken from the receiver volume for scintillation counting. A 100 µL sample was taken from the donor chamber at 3 h in order to calculate the mass balance of radioactivity to determine if adsorption to the cell culture transport apparatus had occurred. Each sample was placed in 0.9 mL of scintillation fluor (Cytoscint ES, ICN, Cosa Mesa, CA, USA) and read on a Beckman LS 6500 (Palo Alto, CA, USA) scintillation counter for ^3H activity. For berberine and berbamine analysis, 100 µL aliquot was assayed by HPLC.
(§6) The apparent permeability (Papp) was calculated using the following equation [40]: Papp=dQ/dt×1/A×C0
(§7) Where A is the surface area of the monolayer (4.71 cm^2) and C0 is the initial concentration of radiolabeled probe substrate in the donor compartment. dQ/dt is the slope of the steady-state rate constant. The efflux ratio was determined by dividing the Papp in the B to A direction by the Papp in the A to B direction: Efflux ratio=PappB to A/PappA to B
(§8) A Waters 2690 separations module with a Model 996 photodiode array detector with the Millennium 32 Chromatograph Manager version 3.0 software (Waters Corporation, Milford, MA, USA) was used for HPLC analysis. […] All the standards and samples were filtered (0.2 µm) prior to injection. Ten µL was injected onto a 250 × 4.6 mm i.d., […], Zorbax Eclipse X DB-C18 Column (Agilent Technologies, Palo Alto, CA, USA) with a 3.9 × 20 mm i.d. Symmetry® C18 guard column, with an isocratic mobile phase of 32:68 acetonitrile:buffer. The buffer consisted of 30 mM ammonium acetate and 14 mM TEA and was adjusted to pH 4.85 with acetic acid. A flow rate of 1 mL/min and UV absorption at 254 nm was used for analysis. The retention time of berberine and berbamine was 7.84 min and 3.03 min, respectively. The cumulative amount of transport was determined using the corresponding peak area for berberine or berbamine. The cumulative amount of berberine or berbamine transported across the cell membrane was evaluated as a functionof time. The Papp was calculated by the following equation: […]

Caco-2 cells [7] = assay: as above; type: in vitro ADME, human
Experimental: as §5, §6, §7, §8

P-glycoprotein (MDR1) = target: T1, P-glycoprotein (MDR1) (Homo sapiens, UniProt P08183); assay: Transepithelial transport of berberine and berbamine across MDCKII-MDR1 cells; type: in vitro ADME; conditions: dog, MDCK-MDR1
T1 construct: expressed in transfected cells; host or cells: MDCKII-MDR1 (Madin-Darby canine kidney II cells overexpressing MDR1)
T1 sequence (P08183 whole entry): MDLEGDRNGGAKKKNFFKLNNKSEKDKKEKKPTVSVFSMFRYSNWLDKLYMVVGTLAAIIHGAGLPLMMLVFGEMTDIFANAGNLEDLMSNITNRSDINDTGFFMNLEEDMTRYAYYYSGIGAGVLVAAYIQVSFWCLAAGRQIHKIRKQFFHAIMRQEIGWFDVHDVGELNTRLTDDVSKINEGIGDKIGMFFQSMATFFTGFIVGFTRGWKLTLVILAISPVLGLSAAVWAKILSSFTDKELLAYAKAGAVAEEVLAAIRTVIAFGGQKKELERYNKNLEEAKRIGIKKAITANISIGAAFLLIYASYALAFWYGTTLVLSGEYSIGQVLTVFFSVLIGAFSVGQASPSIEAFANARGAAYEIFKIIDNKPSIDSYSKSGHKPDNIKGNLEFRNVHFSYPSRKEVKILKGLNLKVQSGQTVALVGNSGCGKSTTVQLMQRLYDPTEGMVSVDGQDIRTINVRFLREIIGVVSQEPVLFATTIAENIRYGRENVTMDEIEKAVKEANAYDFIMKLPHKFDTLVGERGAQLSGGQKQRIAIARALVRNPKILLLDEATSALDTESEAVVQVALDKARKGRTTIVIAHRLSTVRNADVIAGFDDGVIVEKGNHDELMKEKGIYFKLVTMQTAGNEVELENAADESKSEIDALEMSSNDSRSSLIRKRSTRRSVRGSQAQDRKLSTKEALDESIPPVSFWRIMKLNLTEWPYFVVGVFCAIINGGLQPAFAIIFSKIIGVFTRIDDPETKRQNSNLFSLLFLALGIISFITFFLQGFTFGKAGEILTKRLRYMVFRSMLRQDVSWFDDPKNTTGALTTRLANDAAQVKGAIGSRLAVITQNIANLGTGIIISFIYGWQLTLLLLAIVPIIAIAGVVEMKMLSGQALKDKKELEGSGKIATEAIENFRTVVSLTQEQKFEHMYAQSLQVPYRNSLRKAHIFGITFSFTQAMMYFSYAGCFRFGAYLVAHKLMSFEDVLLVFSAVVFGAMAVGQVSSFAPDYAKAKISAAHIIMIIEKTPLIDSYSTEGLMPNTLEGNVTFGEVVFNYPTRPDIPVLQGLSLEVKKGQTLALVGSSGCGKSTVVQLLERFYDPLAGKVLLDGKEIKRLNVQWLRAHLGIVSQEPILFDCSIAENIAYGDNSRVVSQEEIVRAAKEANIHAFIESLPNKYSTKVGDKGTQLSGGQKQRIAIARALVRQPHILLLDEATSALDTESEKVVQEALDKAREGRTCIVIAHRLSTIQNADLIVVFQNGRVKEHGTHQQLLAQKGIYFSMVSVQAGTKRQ
Experimental: Transport of ^3H-CsA and ^3H-digoxin (0.5 µM and 1.0 µCi), MDR1 substrates, were performed using transport buffer consisting of HBSS with 10 mM HEPES and 25 mM D-glucose at a pH of 6.8 for the apical (A) compartment and 7.4 for the basolateral (B) compartment. Experiments were performed at 37°C, 5% CO2, and 95% relative humidity. Cells in the Transwell® inserts were washed 3 times with a transport buffer and allowed to equilibrate for 30 min prior to the addition of test compounds. […] To evaluate the efflux mechanism involved with berberine and berbamine, 100 µM of berberine and berbamine were placed in the donor chamber and 100 µL samples were collected in the receiver chamber at 0, 0.5, 1.0, 1.5, 2.0, 2.5, and 3.0 h and analyzed by HPLC. Each experiment was performed in duplicate and repeated for each condition tested. […] A 100 µL sample was taken from the donor chamber at 3 h in order to calculate the mass balance of radioactivity to determine if adsorption to the cell culture transport apparatus had occurred. Each sample was placed in 0.9 mL of scintillation fluor (Cytoscint ES, ICN, Cosa Mesa, CA, USA) and read on a Beckman LS 6500 (Palo Alto, CA, USA) scintillation counter for ^3H activity. […]
The apparent permeability (Papp) was calculated using the following equation [40]: Papp=dQ/dt×1/A×C0 […]

Caco-2 cells [8] = assay: MTT cytotoxicity assay in Caco-2 cells; type: cell-based, human; conditions: for MTT assay: 4 hours exposure
Text: as §2, §3, §4

MDCKII wild-type cells = assay: MTT cytotoxicity assay in MDCKII wild-type cells; type: cell-based, Canine; conditions: MDCKII-WT cells, 4 hours exposure
Text: as §2
(§9) We initiated cytotoxicity experiments with the Caco-2, MDCKII-MDR1 and MDCKII-wild type cells on Day 7 (Caco-2) and Day 4 (MDCKII-MDR1 and MDCKII-wild type) after the initial plating of the cells at 2.5x10^3 cells/well in 48-well plates (Becton Dickinson, Franklin Lakes, NJ, USA). Stock solutions of 10 mM berberine or berbamine were prepared by dissolving the compounds in DMSO (berberine) or distilled water (berbamine). […] The final concentration of DMSO was 0.003% (v/v), 0.03% (v/v), 0.3% (v/v), 1% (v/v), 1.5% (v/v), and 3% (v/v) DMSO/culture medium for 0.3 μM, 3 μM, 30 μM, 100 μM, ,150 μM, and 300 μM, respectively. The final concentration of ethanol was 0.15% (v/v) ethanol/culture medium. Ketoconazole (75 µM) was used as a positive control and no treatment (medium alone) was used as a negative control for each experiment.
as §4

MDCKII-MDR1 cells = assay: MTT cytotoxicity assay in MDCKII-MDR1 cells; type: cell-based, Canine; conditions: 4 hours exposure
Text: as §2, §9, §4

P-glycoprotein = P-glycoprotein (Homo sapiens, UniProt P08183); assay: Effect on 3H-CsA and 3H-digoxin transport in Caco-2 cells; conditions: Caco-2 cells
Sequence of P-glycoprotein (P08183 whole entry): as above

P-gp = tested on: P-gp; set-up: method as in PMID 12434406; conditions: Caco-2 cells; inhibitor 1 mM; cited from earlier work

SMILES: N[C@@H](Cc1cc(I)c(Oc2cc(I)c(O)c(I)c2)c(I)c1)C(=O)O [levothyroxine]
P-gp (MDR1) mRNA (human MDR1 mRNA): significantly increase

Papp [1]: 2.38 ± 0.13 ×10⁻⁶ cm/s | Papp [2]: 2.16 ± 0.72 ×10⁻⁶ cm/s | Papp [3]: 2.09 ± 0.4 ×10⁻⁶ cm/s | transport rate (Caco-2 cells [4]): less than 1 % per hour
SMILES: OC[C@@H](O)[C@@H](O)[C@H](O)[C@H](O)CO [mannitol]

SMILES: COc1cc2c3cc1Oc1c(OC)c(OC)cc4c1[C@@H](Cc1ccc(O)c(c1)Oc1ccc(cc1)C[C@@H]3N(C)CC2)N(C)CC4 [Berbamine, berbamine dihydrochloride]
LDH assay (Caco-2 cells [5]): 43.88 ± 7.44% | efflux ratio at 3 h, 100 µM ([6]; Caco-2, 100 µM, Caco-2 cells, read-out: fold increase of Papp B to A compared with A to B): ~30 | efflux ratio at 3 h, 100 µM ([6]; Caco-2, Caco-2 cells, read-out: efflux ratio): 24.2 ± 4.5 | Papp A→B at 3 h, 100 µM ([6]; 100 µM, Caco-2 cells, read-out: Papp A to B direction): 2.49 ×10⁻⁶ cm/s | Papp B→A at 3 h, 100 µM ([6]; 100 µM, Caco-2 cells, read-out: Papp B to A direction): 60.3 ×10⁻⁶ cm/s | transport in the A to B direction (Caco-2 cells [7]; 100 µM, Caco-2 cells): 0.39 nmol/min | transport in the B to A direction (Caco-2 cells [7]; 100 µM, Caco-2 cells): 5.94 nmol/min | extent of efflux relative to berberine (Caco-2 cells [7]; Caco-2 and MDCKII-MDR1 cells): ~5 fold | efflux ratio at 3 h, 100 µM (P-glycoprotein (MDR1)): 27.4 ± 5.1 | MTT assay (Caco-2 cells [8]; 0.03 µM): □ (%MTT reduction is not significantly decreased compared with the negative control) | MTT assay (Caco-2 cells [8]; 0.3 µM): □ (%MTT reduction is not significantly decreased compared with the negative control) | MTT assay (Caco-2 cells [8]; 30 µM): □ (%MTT reduction is not significantly decreased compared with the negative control) | MTT assay (Caco-2 cells [8]; 100 µM): □ (%MTT reduction is not significantly decreased compared with the negative control) | MTT assay (Caco-2 cells [8]; 150 µM): □ (%MTT reduction is not significantly decreased compared with the negative control) | MTT assay (Caco-2 cells [8]; 300 µM): 64.99 ± 11.46% | earliest time of significant increase in LDH leakage and decrease in MTT reduction (Caco-2 cells [8]; 300 µM, time-response 2, 4, 6, 8 hr, data not shown): 2 h | MTT assay (MDCKII wild-type cells; 0.03 µM): □ (%MTT reduction is not significantly decreased compared with the negative control) | MTT assay (MDCKII wild-type cells; 0.3 µM): □ (%MTT reduction is not significantly decreased compared with the negative control) | MTT assay (MDCKII wild-type cells; 30 µM): □ (%MTT reduction is not significantly decreased compared with the negative control) | MTT assay (MDCKII wild-type cells; 100 µM): □ (%MTT reduction is not significantly decreased compared with the negative control) | MTT assay (MDCKII wild-type cells; 150 µM): □ (%MTT reduction is not significantly decreased compared with the negative control) | MTT assay (MDCKII wild-type cells; 300 µM): 64.32 ± 13.1% | MTT assay (MDCKII-MDR1 cells; 0.03 µM): □ (%MTT reduction is not significantly decreased compared with the negative control) | MTT assay (MDCKII-MDR1 cells; 0.3 µM): □ (%MTT reduction is not significantly decreased compared with the negative control) | MTT assay (MDCKII-MDR1 cells; 30 µM): □ (%MTT reduction is not significantly decreased compared with the negative control) | MTT assay (MDCKII-MDR1 cells; 100 µM): □ (%MTT reduction is not significantly decreased compared with the negative control) | MTT assay (MDCKII-MDR1 cells; 150 µM): □ (%MTT reduction is not significantly decreased compared with the negative control) | MTT assay (MDCKII-MDR1 cells; 300 µM): □ (%MTT reduction is not significantly decreased compared with the negative control) | lowest concentration with significant decrease of B to A transport of 0.5 µM 3H-CsA (P-glycoprotein): 30 µM

SMILES: COC(=O)c1ccccc1-c1c2ccc(=N)cc-2oc2cc(N)ccc12 [rhodamine123]
inhibition of the efflux of 20 µM berberine (P-gp): 100%

SMILES: COc1cccc2c1C(=O)c1c(O)c3c(c(O)c1C2=O)C[C@@](O)(C(C)=O)C[C@@H]3O[C@H]1C[C@H](N)[C@H](O)[C@H](C)O1 [daunomycin]
inhibition of the efflux of 20 µM berberine (P-gp): 100%
